Assay results as given in the NIST ThermoML archive (doi:10.1021/acs.jced.7b01040).
± gives the expanded uncertainty stated by the source.

What was measured:
[1] = for vapor or sublimation pressure: Transpiration method; for Normal melting temperature: DTA; for Triple point temperature: DSC
[2] = Molar enthalpy of transition or fusion; details: DSC

SMILES: Cc1c(Br)c(Br)c(C)c(Br)c1Br [1,2,4,5-tetrabromodimethylbenzene]
- vapor or sublimation pressure ([1]; 322.8 K, Crystal): 2.4e-06 ± 6e-07 kPa
- vapor or sublimation pressure ([1]; 327.7 K, Crystal): 4.2e-06 ± 5e-07 kPa
- vapor or sublimation pressure ([1]; 332.7 K, Crystal): 7.2e-06 ± 9e-07 kPa
- vapor or sublimation pressure ([1]; 337.5 K, Crystal): 1.25e-05 ± 8e-07 kPa
- vapor or sublimation pressure ([1]; 342.5 K, Crystal): 2.1e-05 ± 2e-06 kPa
- vapor or sublimation pressure ([1]; 347.5 K, Crystal): 3.6e-05 ± 1.2e-05 kPa
- vapor or sublimation pressure ([1]; 352.4 K, Crystal): 5.9e-05 ± 1.4e-05 kPa
- vapor or sublimation pressure ([1]; 357.5 K, Crystal): 0.0001 ± 2e-05 kPa
- vapor or sublimation pressure ([1]; 362.4 K, Crystal): 0.00016 ± 4e-05 kPa
- vapor or sublimation pressure ([1]; 367.4 K, Crystal): 0.00025 ± 2e-05 kPa
- Normal melting temperature ([1]; Crystal): 254.2 ± 0.7 °C
- Molar enthalpy of transition or fusion ([2]; Crystal): 5.71 ± 1.43 kcal/mol

SMILES: BrCC(Br)COc1c(Br)cc(Br)cc1Br (centres undefined) [1,3,5-tribromo(2,3-dibromopropoxy)benzene]
- vapor or sublimation pressure ([1]; 322.9 K, Liquid): 1.9e-06 ± 4e-07 kPa
- vapor or sublimation pressure ([1]; 327.8 K, Liquid): 3.2e-06 ± 8e-07 kPa
- vapor or sublimation pressure ([1]; 332.7 K, Liquid): 5.5e-06 ± 8e-07 kPa
- vapor or sublimation pressure ([1]; 337.7 K, Liquid): 9.6e-06 ± 2.4e-06 kPa
- vapor or sublimation pressure ([1]; 342.7 K, Liquid): 1.7e-05 ± 4e-06 kPa
- vapor or sublimation pressure ([1]; 347.7 K, Liquid): 2.7e-05 ± 2e-06 kPa
- vapor or sublimation pressure ([1]; 352.7 K, Liquid): 4.3e-05 ± 1e-05 kPa
- vapor or sublimation pressure ([1]; 357.7 K, Liquid): 6.7e-05 ± 1.4e-05 kPa
- vapor or sublimation pressure ([1]; 362.7 K, Liquid): 0.00013 ± 2e-05 kPa
- vapor or sublimation pressure ([1]; 367.7 K, Liquid): 0.00016 ± 4e-05 kPa
- Triple point temperature ([1]; Crystal 1): 313.7 ± 0.9 K
- Triple point temperature ([1]; Crystal 2): 307.9 ± 0.9 K
- Molar enthalpy of transition or fusion ([2]; Crystal 1): 0.612 ± 1.43 kcal/mol
- Molar enthalpy of transition or fusion ([2]; Crystal 2): 4.09 ± 1.43 kcal/mol

SMILES: CCc1c(Br)c(Br)c(Br)c(Br)c1Br [pentabromoethylbenzene]
- vapor or sublimation pressure ([1]; 322.7 K, Crystal): 3.7e-06 ± 1e-06 kPa
- vapor or sublimation pressure ([1]; 327.6 K, Crystal): 6.1e-06 ± 2.2e-06 kPa
- vapor or sublimation pressure ([1]; 332.6 K, Crystal): 1.04e-05 ± 1.3e-06 kPa
- vapor or sublimation pressure ([1]; 337.5 K, Crystal): 1.7e-05 ± 8e-06 kPa
- vapor or sublimation pressure ([1]; 342.4 K, Crystal): 3.2e-05 ± 1e-05 kPa
- vapor or sublimation pressure ([1]; 347.4 K, Crystal): 4.9e-05 ± 1.8e-05 kPa
- vapor or sublimation pressure ([1]; 352.3 K, Crystal): 8.3e-05 ± 2.6e-05 kPa
- vapor or sublimation pressure ([1]; 357.4 K, Crystal): 0.00013 ± 2e-05 kPa
- vapor or sublimation pressure ([1]; 362.3 K, Crystal): 0.00021 ± 2e-05 kPa
- vapor or sublimation pressure ([1]; 367.3 K, Crystal): 0.00032 ± 8e-05 kPa
- Normal melting temperature ([1]; Crystal): 135.8 ± 0.7 °C
- Molar enthalpy of transition or fusion ([2]; Crystal): 3.2 ± 1.43 kcal/mol

SMILES: Cc1c(Br)c(Br)c(Br)c(Br)c1Br [pentabromomethylbenzene]
- vapor or sublimation pressure ([1]; 322.9 K, Crystal): 2.7e-07 ± 1.1e-07 kPa
- vapor or sublimation pressure ([1]; 327.8 K, Crystal): 5.1e-07 ± 1.3e-07 kPa
- vapor or sublimation pressure ([1]; 332.9 K, Crystal): 9.1e-07 ± 2.3e-07 kPa
- vapor or sublimation pressure ([1]; 337.6 K, Crystal): 1.62e-06 ± 5.9e-07 kPa
- vapor or sublimation pressure ([1]; 342.7 K, Crystal): 2.9e-06 ± 8e-07 kPa
- vapor or sublimation pressure ([1]; 347.6 K, Crystal): 5.5e-06 ± 1e-06 kPa
- vapor or sublimation pressure ([1]; 352.6 K, Crystal): 9e-06 ± 7e-07 kPa
- vapor or sublimation pressure ([1]; 357.6 K, Crystal): 1.5e-05 ± 4e-06 kPa
- vapor or sublimation pressure ([1]; 362.5 K, Crystal): 2.7e-05 ± 4e-06 kPa
- vapor or sublimation pressure ([1]; 367.6 K, Crystal): 4.2e-05 ± 8e-06 kPa
- Normal melting temperature ([1]; Crystal): 286 ± 0.7 °C
- Molar enthalpy of transition or fusion ([2]; Crystal): 7 ± 1.43 kcal/mol

SMILES: Oc1c(Br)c(Br)c(Br)c(Br)c1Br [pentabromophenol]
- vapor or sublimation pressure ([1]; 322.9 K, Crystal 2): 1.9e-07 ± 9e-08 kPa
- vapor or sublimation pressure ([1]; 327.8 K, Crystal 2): 3.6e-07 ± 1e-07 kPa
- vapor or sublimation pressure ([1]; 332.8 K, Crystal 2): 6.7e-07 ± 1.4e-07 kPa
- vapor or sublimation pressure ([1]; 337.7 K, Crystal 2): 1.2e-06 ± 2e-07 kPa
- vapor or sublimation pressure ([1]; 342.6 K, Crystal 2): 2.3e-06 ± 4e-07 kPa
- vapor or sublimation pressure ([1]; 347.6 K, Crystal 2): 4.2e-06 ± 6e-07 kPa
- vapor or sublimation pressure ([1]; 352.6 K, Crystal 2): 7.8e-06 ± 1.1e-06 kPa
- vapor or sublimation pressure ([1]; 357.6 K, Crystal 2): 1.4e-05 ± 4e-06 kPa
- vapor or sublimation pressure ([1]; 362.6 K, Crystal 2): 2.7e-05 ± 4e-06 kPa
- vapor or sublimation pressure ([1]; 367.4 K, Crystal 2): 4.5e-05 ± 8e-06 kPa
- Triple point temperature ([1]; Crystal 1): 496.3 ± 0.9 K
- Triple point temperature ([1]; Crystal 2): 416.2 ± 0.9 K
- Molar enthalpy of transition or fusion ([2]; Crystal 1): 4.42 ± 1.43 kcal/mol
- Molar enthalpy of transition or fusion ([2]; Crystal 2): 2.82 ± 1.43 kcal/mol
